Each compound was assayed against Induced myeloid leukemia cell differentiation protein Mcl-1 (Homo sapiens) (UniProt Q07820) (assay: Mcl-1 Noxa peptide disruption concentration-response – biochemical, TR-FRET, dose response (AID 1417)). Conditions: Mcl-1/Noxa peptide interaction, cell-free TR-FRET (terbium/rhodamine), 2 h; measured here: absolute IC50.
Induced myeloid leukemia cell differentiation protein Mcl-1 (Homo sapiens), sequence (Q07820 whole entry, looked up): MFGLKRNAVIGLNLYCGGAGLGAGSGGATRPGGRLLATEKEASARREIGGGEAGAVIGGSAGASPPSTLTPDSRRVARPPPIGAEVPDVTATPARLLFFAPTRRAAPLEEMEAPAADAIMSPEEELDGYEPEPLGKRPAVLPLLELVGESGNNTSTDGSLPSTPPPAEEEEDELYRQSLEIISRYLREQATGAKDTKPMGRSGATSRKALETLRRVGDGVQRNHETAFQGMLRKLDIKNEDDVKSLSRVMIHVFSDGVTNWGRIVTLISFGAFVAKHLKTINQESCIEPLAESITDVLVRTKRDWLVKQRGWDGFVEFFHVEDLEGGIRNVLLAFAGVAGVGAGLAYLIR
Compound `CC(=O)NC1=C(NC2CCS(=O)(=O)C2)C(=O)c2ccccc2C1=O` (stereo not given) has an IC50 of 2.77 µM.
In the case of `COc1ccc(C(=O)c2sc3nc(-c4ccc(OC)cc4)ccc3c2N)cc1`, the IC50 is reported as > 54 µM.
`CCOC(=O)C1CCN(c2nc(N)c3c(N)nc(SCC(=O)O)cc3c2C#N)CC1` was tested, and the IC50 was < 0.4 µM.
With `O=C1NC(=S)NC(=O)C1=Cc1ccc2c(c1)CCN2CCCCl` the IC50 was < 0.4 µM.
For `CSc1nc(N(C)CCO)c2sc3nc(-c4ccco4)c4c(c3c2n1)CCC4`, the IC50 was < 0.4 µM.
Work on `O=C1N=c2ccccc2=C1c1sc(Nc2ccc(O)cc2)nc1O` yielded an IC50 of 1.2 µM.
Compound `CCOc1cc(/C=C(\C#N)c2[nH]nc(N)c2C#N)ccc1O` has an IC50 of 4.6 µM.
With `Cc1ccc(N2NC(=O)/C(=C\c3cc4c(cc3[N+](=O)[O-])OCO4)C2=O)cc1C` the IC50 was 4.92 µM.
In the case of `CN(C)c1ccc(N=c2sc3ccccc3n2C)cc1`, the IC50 is reported as < 0.4 µM.
For `CCN(c1ccc(NC(=O)c2ccc(Cl)nc2)cc1)C(C)C`, the IC50 was > 54 µM.
With `Cc1c(O)cc2c(c1O)C(=O)CC(c1ccc(O)cc1)O2` (stereo not given) the IC50 was 2.84 µM.
For `CSc1nc(SCCO)c2sc3nc(-c4ccco4)c4c(c3c2n1)CC(C)(C)OC4`, the IC50 was < 0.4 µM.
With `O=C(O)CCN1C(=O)/C(=C\c2ccc(-c3nc4ccccc4s3)o2)SC1=S` the IC50 was < 0.4 µM.
With `CCN1C(=O)C(C)S/C1=N\S(=O)(=O)c1ccc(F)cc1` (stereo not given) the IC50 was > 54 µM.
For `O=C(N/N=C\C=C\c1ccco1)c1cc(-c2ccc3ccccc3c2)n[nH]1`, the IC50 was 2.11 µM.
With `COc1cccc(C(=O)Nc2ccc3nc(N4CCN(c5ncccn5)CC4)cc(C)c3c2)c1OC` the IC50 was 8.07 µM.
Work on `COc1ccc(C(CC(=O)N2CCCC2)c2c(OC)cc(OC)c3c(-c4ccccc4)cc(=O)oc23)cc1` (stereo not given) yielded an IC50 of 3.89 µM.
With `CN(C)c1ccc(NS(=O)(=O)c2cccc(Cl)c2)cc1` the IC50 was > 54 µM.
`CC(C)(C)c1cc(-c2csc(Nc3ccccc3)[n+]2Cc2ccc(C(=O)O)cc2)cc(C(C)(C)C)c1O` showed an IC50 of 1.32 µM.
Compound `COc1ccc(/C=C/C(=O)NC(=S)Nc2cc([N+](=O)[O-])ccc2O)cc1OC` has an IC50 of 1.12 µM.
With `CCNc1ccc(Br)cc(C(=O)/C=C/c2ccc(Cl)cc2)c1=O` the IC50 was 2.03 µM.
For `CCN1c2ccccc2N(C)C1(C)c1ccccc1` (stereo not given), the IC50 was 5.11 µM.
For `Cc1ccc(N=C2NC(=O)/C(=C/C=C/c3ccco3)S2)cc1`, the IC50 was 7.16 µM.
`Cc1[nH]n(-c2ncc(-c3ccc(Cl)cc3)s2)c(=O)c1C(c1ccc(Cl)cc1)C(C#N)C#N` (stereo not given) showed an IC50 of 1.67 µM.
In the case of `O=C(NCCO)Nc1ccc2nc(-c3ccco3)c(-c3ccco3)nc2c1`, the IC50 is reported as < 0.4 µM.
Work on `CC(=O)c1ccc(NC(=O)CSc2nnc(-c3ccco3)c(-c3ccco3)n2)cc1` yielded an IC50 of 5.96 µM.
With `O=C1OC(c2cccs2)=N/C1=C/c1ccc(-c2cccc(C(=O)O)c2)o1` the IC50 was > 54 µM.
With `Oc1ccccc1C1Nc2cccc3cccc(c23)N1` the IC50 was 6.64 µM.
`N#Cc1c2nc3ccccc3nc2n2cc(NC(=O)c3ccc(F)cc3)ccc12` was tested, and the IC50 was < 0.4 µM.
With `O=C(Nc1cccc(S(=O)(=O)NC2=NCCC2)c1)c1cc(-c2ccco2)nc2ccccc12` the IC50 was < 0.4 µM.
In the case of `NC(=O)c1c(NC(=O)CSc2nnc(-c3ccco3)n2-c2ccccc2)sc2c1CCC2`, the IC50 is reported as 5.75 µM.
Compound `Oc1c(Cl)cc(Cl)cc1Sc1cc(Cl)cc(Cl)c1O` has an IC50 of 1.64 µM.
With `COc1ccc(/C=C2\C(=O)NC(=S)N2C(=O)c2ccc(C)cc2)cc1` the IC50 was > 54 µM.
Compound `COc1cc(/C=C2\SC(=S)NC2=O)ccc1OS(=O)(=O)c1ccccc1` has an IC50 of 1.97 µM.
`O=C(O)CCn1cc(C=C2C(=O)NC(=S)NC2=O)c(-c2cccc(Br)c2)n1` gave an IC50 of 2.18 µM.
In the case of `CC(C)Nc1nnc(SCC(=O)Nc2ccc3c(c2)C(=O)c2ccccc2C3=O)s1`, the IC50 is reported as 2.01 µM.
In the case of `COc1ccc(OCC(=O)Nc2nnc(-c3ccco3)s2)cc1`, the IC50 is reported as 3.81 µM.
In the case of `S=c1[nH]nc(-c2cc(-c3ccccc3)n[nH]2)n1/N=C/C(Br)=C/c1ccccc1`, the IC50 is reported as 7.38 µM.
With `Cc1ccc(S(=O)(=O)/N=C2/C=C(Sc3ncn[nH]3)C(=O)c3ccccc32)cc1` the IC50 was < 0.4 µM.
With `Cc1cc(/C=N/n2c(COc3ccccc3)nc3ccccc3c2=O)c(O)c([N+](=O)[O-])c1` the IC50 was 1.56 µM.
`Cc1cc(C)c2nc(-c3ccccn3)cc(C(=O)Nc3ccc(S(=O)(=O)Nc4onc(C)c4C)cc3)c2c1` was tested, and the IC50 was 2.82 µM.
`CCOC(=O)CSc1nc(N)c(C(=O)Nc2ccc(N(C)C)cc2)s1` gave an IC50 of 0.523 µM.
`COc1cc(NCCC(=O)c2cccs2)c(OC)cc1Cl` was tested, and the IC50 was > 54 µM.
`CN(C)c1ccc(C(CNC(=O)c2ccccc2Br)c2c[nH]c3ccccc23)cc1` (stereo not given) was tested, and the IC50 was > 54 µM.
With `O=[N+]([O-])c1cc(Br)c(O)c(/C=N/Nc2nc3ccccc3s2)c1` the IC50 was < 0.4 µM.
With `CC(C)C(C(=O)O)N1C(=O)/C(=C/C=C/c2ccco2)SC1=S` (stereo not given) the IC50 was < 0.4 µM.
`O=C1NC(=S)NC(=O)C1=Cc1cccn1-c1ccc(O)cc1` showed an IC50 of 3.36 µM.
In the case of `O=C(O)C[C@@H]1C(=O)O[C@@H]2C(COC(=O)c3cc(O)c(O)c(O)c3)O[C@@H](OC(=O)c3cc(O)c(O)c(O)c3)[C@@H](OC(=O)c3cc(O)c(O)c4c3[C@H]1[C@H](O)C(=O)O4)[C@H]2OC(=O)c1cc(O)c(O)c(O)c1` (stereo not given in full), the IC50 is reported as < 0.4 µM.
`N#C/C(=C/c1ccc(OCc2ccc(C(=O)O)cc2)c(Br)c1)c1cccc(F)c1` was tested, and the IC50 was < 0.4 µM.
`Cc1ccc(S(=O)(=O)/N=C2/C=C(C3C(=O)CC(C)(C)CC3=O)C(=O)c3ccccc32)cc1` gave an IC50 of 2.87 µM.
With `COc1ccc(C(=O)O)cc1NC(=S)NC(=O)c1ccc(-c2ccc(Cl)cc2)o1` the IC50 was > 54 µM.
In the case of `O=C(COC(=O)c1ccc2c(c1)C(=O)N(Cc1ccncc1)C2=O)Nc1ccccc1[N+](=O)[O-]`, the IC50 is reported as 2.53 µM.
`Cc1nc2ccc(NC(=O)c3cc([N+](=O)[O-])cc([N+](=O)[O-])c3Cl)cc2s1` was tested, and the IC50 was 1.3 µM.
For `Cc1ccc2c(c1)NC(=O)c1cccnc1N2`, the IC50 was > 54 µM.
With `CC(C)CCC(CCN1CCCC1)c1ccc2c(c1)OCO2` (stereo not given) the IC50 was > 54 µM.
`O=C(O)c1ccccc1N/N=C/c1cc(Br)cc(Br)c1O` showed an IC50 of 7.51 µM.
In the case of `O=C(O)CSc1cc(C(=O)c2ccccc2O)cn2c(=O)c3c(-c4ccccc4)csc3nc12`, the IC50 is reported as 5.71 µM.
In the case of `CCN(/N=C/c1ccc(N(C)C)cc1)c1nc2ccccc2[nH]1`, the IC50 is reported as 2.06 µM.
With `Cc1ccc2[nH]c(O)c(N=Nc3nc4ccccc4s3)c2c1` the IC50 was 2.48 µM.
For `COc1cc(/C=N/NC(=O)C2c3ccccc3Oc3ccccc32)ccc1O`, the IC50 was 6.68 µM.
With `CCCC1=NN2C(=N)/C(=C\c3ccc(SCc4ccco4)o3)C(=O)N=C2S1` the IC50 was < 0.4 µM.
In the case of `Cc1ccc(-n2c(O)c(/C=N/Nc3ccc(S(=O)(=O)N4CCOCC4)cc3[N+](=O)[O-])c3ccccc3c2=O)c(C)c1`, the IC50 is reported as > 54 µM.
`O=C1CC(N2CCN(S(=O)(=O)c3ccccc3)CC2)C(=O)N1c1ccccc1` (stereo not given) was tested, and the IC50 was > 54 µM.
With `O=C(O)c1ccc(NS(=O)(=O)c2ccc3c(c2)C2C=CCC2C(c2ccccc2F)N3)cc1` (stereo not given) the IC50 was 1.27 µM.
`O=C(O)CCN1C(=O)/C(=C/c2cn(-c3ccccc3)nc2-c2cccs2)SC1=S` was tested, and the IC50 was > 54 µM.
In the case of `COc1cc(/C=N/NC(=O)c2ccc([N+](=O)[O-])cc2Cl)cc(Br)c1O`, the IC50 is reported as > 54 µM.
In the case of `O=C(NCC1CCCO1)c1ccc(Cn2c(=S)[nH]c3ccccc3c2=O)cc1` (stereo not given), the IC50 is reported as > 54 µM.
Compound `CCOC1=C/C(=C/c2c(N)n3nc(-c4ccccc4)sc3nc2=O)C=CC1=O` has an IC50 of 2.43 µM.
With `CC(C)OC(=O)Cn1cnc2ccc(Br)cc2c1=O` the IC50 was > 54 µM.
With `CN1C=C/C(=C\c2cc[n+](C)c3ccccc23)c2ccccc21` the IC50 was < 0.4 µM.
`CCN(c1ccc(NC(=O)CCNC(=O)c2ccco2)cc1)C(C)C` was tested, and the IC50 was > 54 µM.
`N=C1S/C(=C\c2ccco2)C(=O)N1c1ccc2c(c1)OCO2` gave an IC50 of 8.85 µM.
`O=C1C(Cl)=C(N2CCCCC2)C(=O)C(Cl)=C1c1cnc(N2CCCCC2)s1` was tested, and the IC50 was < 0.4 µM.
In the case of `COc1ccc(C(=O)n2nc(C)c(Br)c2C)cc1`, the IC50 is reported as > 54 µM.
With `CN(C)c1ccc(/C=N/NC(=O)c2cccc(C(=O)N/N=C/c3ccc(N(C)C)cc3)n2)cc1` the IC50 was < 0.4 µM.

Reference: PubChem BioAssay AID1417 (Emory University Molecular Libraries Screening Center, 2008)
